The results in this text go back to BindingDB's records for doi:10.7270/Q23F4N3R (Burnham Center For Chemical Genomics, 2011).

Structures are written as SMILES. Counter-ions that a name gives are not always drawn. Where a SMILES comes first, the peptide text is derived from it. Bridges are numbered along the chain shown (N, C = ends). [ ]: non-standard residue; d: D form. The star is where a group is joined. X1 = CCC(C)C(N)C1=NC(C(=O)*)CS1; dOrn = NCCC[C@@H](N)C(=O)O

One assay is described as follows: HK1 enzyme inhibitors – biochemical, selectivity assay for HKDC1 inhibitor project, dose response (AID 504763).
Conditions: not given
As to `CCOc1ccc2c(c1)C(NC(C)=O)C(=O)N2CCN1CCOCC1` (configuration not stated) [N-[5-ethoxy-1-(2-morpholin-4-ylethyl)-2-oxo-3H-indol-3-yl]acetamide;hydrochloride], the IC50 (commonly the concentration that gives 50% inhibition) is greater than 80 µM.

Consider `O=C(CSc1nnc(-c2cccnc2)[nH]1)Nc1ccnc2ccccc12` [2-[(5-pyridin-3-yl-1H-1,2,4-triazol-3-yl)sulfanyl]-N-quinolin-4-yl-ethanamide], for which the IC50 was 11 µM. The same measure, in the same setting: with `Oc1c(Cl)c(N=CCc2ccccc2)c(O)c2ccccc12` [MLS002608293] the figure was 18.5 µM. In the case of `O=C(/C=C/c1ccco1)NCC(=O)NNC1=c2ccccc2=NC1=O` [MLS001075666], the IC50 is greater than 80 µM. Still for that read-out and setting: to `N#CC(C(=O)CCl)c1nc2c(s1)CCc1ccccc1-2` (configuration not stated) [MLS001171530] belongs 38.3 µM. The same measure, in the same setting: to `CC(=O)n1cc(N(C(=O)CCl)c2ccc([N+](=O)[O-])cc2)c2ccccc21` [2-chloranyl-N-(1-ethanoylindol-3-yl)-N-(4-nitrophenyl)ethanamide] belongs greater than 80 µM. On the same count and under the same terms, to `O=C(O)c1ccc(N=Cc2c(O)ccc3ccccc23)cc1` [MLS001205050] belongs 70.8 µM; to `COc1cc(NC(=O)c2cnc(N)s2)cc(C(=O)Nc2cccc(C(F)(F)F)c2)c1` [2-amino-N-[3-methoxy-5-[[3-(trifluoromethyl)phenyl]carbamoyl]phenyl]-1,3-thiazole-5-carboxamide], greater than 80 µM. On to `O=C(O)[C@@H](c1ccccc1)N1Cc2ccccc2C1=O`, for which the IC50 is greater than 80 µM. Still for that read-out and setting: with `CCC1=NN2C(=N)/C(=C\c3ccc(OCc4cc(=O)n5nc(CC)sc5n4)c(OC)c3)C(=O)N=C2S1` [2-ethyl-7-({4-[(E)-(2-ethyl-5-imino-7-oxo-5H-[1,3,4]thiadiazolo[3,2-a]pyrimidin-6(7H)-ylidene)methyl]-2-methoxyphenoxy}methyl)-5H-[1,3,4]thiadiazolo[3,2-a]pyrimidin-5-one] the figure was greater than 80 µM; with `Cc1nc2c(c(=O)c3ccccc3n2C)c(=O)n1-c1ccc(F)cc1` [SMR000439525], 8.78 µM. Still for that read-out and setting: to `Cc1cccc(N2C(=O)NC(=O)C(=Cc3cc(C)n(-c4sc5c(c4C#N)CCCC5)c3C)C2=O)c1C` [2-[3-[(E)-[1-(2,3-dimethylphenyl)-2,4,6-trioxo-1,3-diazinan-5-ylidene]methyl]-2,5-dimethylpyrrol-1-yl]-4,5,6,7-tetrahydro-1-benzothiophene-3-carbonitrile] belongs greater than 80 µM. On the same count and under the same terms, with `CC(=O)N(C1=C(Cl)C(=O)c2ccccc2C1=O)C1CCCCC1` the figure was 10.2 µM.

Turning to `CC(=O)NC1C(=O)N(CCN2CCOCC2)c2ccc(C)cc21` (configuration not stated) [N-[5-methyl-1-(2-morpholin-4-ylethyl)-2-oxidanylidene-3H-indol-3-yl]ethanamide], the IC50 was greater than 80 µM. Still for that read-out and setting: to `CC(=O)NC1C(=O)N(CCN2CCOCC2)c2ccc(Cl)cc21` (configuration not stated) [MLS001215975] belongs greater than 80 µM; to `COc1cc(/C=C2/C(=O)NN(c3ccc(Cl)c(Cl)c3)C2=O)cc([N+](=O)[O-])c1O` [SMR000554908], greater than 80 µM. Same read-out and setting: to `CC(OC(=O)c1cc(O)c2ccccc2c1O)C(=O)Nc1ccc(C(N)=O)cc1` (configuration not stated) [[1-[(4-aminocarbonylphenyl)amino]-1-oxidanylidene-propan-2-yl] 1,4-bis(oxidanyl)naphthalene-2-carboxylate] belongs greater than 80 µM; to `COC(=O)[C@@H]1[C@@H](C(=O)OC)C2(c3ccccc3-c3ccccc32)N(c2ccc(Cl)cc2)N1C#N` [(3'S,4'R)-1'-(4-chlorophenyl)-2'-cyanospiro[fluorene-9,5'-pyrazolidine]-3',4'-dicarboxylic acid dimethyl ester], greater than 80 µM. The same measure, in the same setting: with `CC(C)(C=O)C1=CC(=O)c2ccccc2C1=O` [2-(1,4-dioxo-2-naphthalenyl)-2-methylpropanal] the figure was greater than 80 µM. `O=C(CSc1n[nH]c(-c2cccnc2)n1)Nc1ccc([N+](=O)[O-])cc1Br` [N-(2-bromo-4-nitrophenyl)-2-[(5-pyridin-3-yl-1H-1,2,4-triazol-3-yl)sulfanyl]acetamide]: the midpoint of inhibition, the IC50, lay at 5.71 µM. Same read-out and setting: with `CCCCC[C@H](O)/C=C/[C@@H]1[C@@H](C/C=C\CCCC(=O)OC)[C@@H](O)C[C@H]1O` [MLS000028823] the figure was greater than 80 µM; with `Cc1ccc(S(=O)(=O)N=C2C=C(Sc3nnc[nH]3)C(=O)c3ccccc32)cc1` [4-Methyl-N-[4-oxo-3-(2H-[1,2,4]triazol-3-ylsulfanyl)-4H-naphthalen-1-ylidene]-benzenesulfonamide], 3.29 µM. Still for that read-out and setting: with `CCC(C)C(N)C1=NC(C(=O)N[C@@H](CC(C)C)C(=O)N[C@H](CCC(=O)O)C(=O)N[C@H](C(=O)N[C@H]2CCCCNC(=O)[C@H](CC(N)=O)NC(=O)[C@@H](CC(=O)O)NC(=O)[C@H](Cc3c[nH]cn3)NC(=O)[C@@H](Cc3ccccc3)NC(=O)[C@H]([C@@H](C)CC)NC(=O)[C@@H](CCCN)NC2=O)[C@@H](C)CC)CS1` (some centres not stated) [MLS002207255] (X1-L[dE]IK[dOrn]I[dF]H[dD]N; lactam 4-C) the figure was greater than 80 µM. Still for that read-out and setting: with `C=c1c(NC(C)=O)c(O)c2nc3n(c2c1O)CCC=3OC(=O)COC` [SMR001565176] the figure was 2.15 µM; with `COc1ccc(NC(=O)CSc2ccc(-c3ccco3)nn2)c(OC)c1` [N-(2,4-dimethoxyphenyl)-2-[[6-(2-furanyl)-3-pyridazinyl]thio]acetamide], 5.55 µM; with `Cc1cc2cc(CCNC(=O)c3ccc(S(=O)(=O)N4CCOCC4)cc3)c(O)nc2cc1C` [SMR000025588], 11.5 µM. As for `O=[N+]([O-])c1ccc(Sc2nc3ccccc3o2)c([N+](=O)[O-])c1` [MLS000532050], the IC50 is greater than 80 µM. On the same count and under the same terms, to `O=C(CSc1nnc(CCCN2C(=O)c3cccc4cccc(c34)C2=O)n1-c1ccccc1)N1CCN(CCO)CC1` [2-[3-[5-[[2-[4-(2-hydroxyethyl)-1-piperazinyl]-2-oxoethyl]thio]-4-phenyl-1,2,4-triazol-3-yl]propyl]benzo[de]isoquinoline-1,3-dione] belongs 7.31 µM.

`CCc1nc2sc3c(O)ncnc3c2c2c1CSC(C)(C)C2` [MLS000776813]: 21.8 µM corresponded to half-maximal inhibition (IC50). This IC50 is about 3-fold higher than that of the compound before. Still for that read-out and setting: to `Cc1nc2c(c(=O)c3ccccc3n2C)c(=O)n1-c1ccccc1` belongs 15.3 µM; to `O=C(O)c1ccc(NC2=CC(=NS(=O)(=O)c3ccccc3)c3ccccc3C2=O)cc1` [SMR000313157], 1.63 µM; to `Cc1cccc(N2C(=O)NC(=O)C(=Cc3ccc4c(c3)CCCN4Cc3ccccc3)C2=O)c1` [5-[1-(1-Benzyl-1,2,3,4-tetrahydro-quinolin-6-yl)-meth-(E)-ylidene]-1-m-tolyl-pyrimidine-2,4,6-trione], greater than 80 µM. As for `Cc1nc([N+](=O)[O-])c(Br)n1Cc1ccc(Cl)c(Cl)c1` [MLS000730654], the IC50 was greater than 80 µM. The same measure, in the same setting: to `O=C1C=C(NCc2ccccc2)c2ccccc2C1=O` [SMR000282064] belongs 1.9 µM; to `COc1ccc(OC)c(N2C(=O)C(=Cc3ccco3)C(=O)NC2=S)c1` [MLS001197216], greater than 80 µM; to `COc1ccc(Cn2c(O)c3[nH]cccc-3c2=O)cc1`, greater than 80 µM. On the same count and under the same terms, with `CC(C)c1nc2oc3c(NCC4CCCO4)ncnc3c2c2c1COC(C)(C)C2` (configuration not stated) [MLS000084034] the figure was 2.36 µM; with `Cc1ccc(S(=O)(=O)N=C2C=C(Nc3cccc(C(=O)O)c3)C(=O)c3ccccc32)c(C)c1` [3-[[(4E)-4-(2,4-dimethylphenyl)sulfonylimino-1-oxo-2-naphthalenyl]amino]benzoic acid], 11 µM; with `Cc1nc([N+](=O)[O-])c(Br)n1CC(=O)c1ccc2ccccc2c1` [2-(5-bromanyl-2-methyl-4-nitro-imidazol-1-yl)-1-naphthalen-2-yl-ethanone], greater than 80 µM.

The compound `[H]/N=C(\N/C(=N/[H])NCCCCCCNC(=N)NC(=N)Nc1ccc(Cl)cc1)Nc1ccc(Cl)cc1` [2-[amino-[6-[[amino-[(E)-[amino-(4-chloroanilino)methylidene]amino]methylidene]amino]hexylimino]methyl]-1-(4-chlorophenyl)guanidine] showed an IC50 greater than 80 µM.

Staying with this assay, now noted: inactive by the depositor's call.
With `Nc1ccc(S(=O)(=O)c2cc(O)c3ccccc3c2O)cc1` [SMR001570953], the IC50 is 59.9 µM. The same measure, in the same setting: to `NC1=CC(=O)C(=O)c2ccccc21` belongs 57.8 µM; to `CCCCNC(=O)c1sc(=S)n2c1[nH]c(=O)c1ccc(C(=O)NCCc3ccc(OC)c(OC)c3)cc12` [3-N-butyl-8-N-[2-(3,4-dimethoxyphenyl)ethyl]-5-oxo-1-sulfanylidene-4H-[1,3]thiazolo[3,4-a]quinazoline-3,8-dicarboxamide], 21.2 µM; to `Cc1ccc(C(=O)c2c(C)oc3c2C(=O)C(=O)c2ccccc2-3)cc1` [2-Methyl-3-(4-methyl-benzoyl)-naphtho[1,2-b]furan-4,5-dione], 21.5 µM. The same measure, in the same setting: to `CCOC(=O)C1=C(Cc2ccc(F)cc2)C(=O)c2ccccc2C1=O` [ethyl 3-(4-fluorobenzyl)-1,4-dioxo-1,4-dihydro-2-naphthalenecarboxylate] belongs 25.4 µM; to `COC(=O)c1ccc(CCc2cc(O)c(Br)cc2O)cc1` [SMR001565911], 23.2 µM; to `CCN(CC)CCNc1cc(C)nc2c1C(=O)C(=O)C=C2N1CCCCC1` [4-[2-(diethylamino)ethylamino]-2-methyl-8-piperidin-1-yl-quinoline-5,6-dione], 38.3 µM. Still for that read-out and setting: with `O=C1C(Cl)=C(N2CCCCC2)C(=O)C(Cl)=C1c1cnc(N2CCCCC2)s1` [MLS000550549] the figure was 71.6 µM.

`N#Cc1c(SCC(=O)Nc2nc3ccc(Br)cc3s2)sc2c(O)cc(=O)[nH]c12` [N-(6-bromo-1,3-benzothiazol-2-yl)-2-[(3-cyano-5-hydroxy-7-oxo-4H-thieno[3,2-b]pyridin-2-yl)thio]acetamide] registered an IC50 of 25.9 µM. Same read-out and setting: with `CCN(CC)c1ccc2c(c1)oc(=O)c1c(Cl)cc(=O)oc12` [4-chloranyl-8-(diethylamino)pyrano[3,2-c]chromene-2,5-dione] the figure was 55.4 µM. On the same count and under the same terms, with `O=C1C(Cl)=C(NC(=O)c2ccccc2)C(=O)C(Cl)=C1NC(=O)c1ccccc1` [N-[4-benzamido-2,5-bis(chloranyl)-3,6-bis(oxidanylidene)cyclohexa-1,4-dien-1-yl]benzamide] the figure was 39.2 µM. As for `Cc1nc(COC(=O)c2cc(O)c3ccccc3c2O)cs1` [(2-methyl-1,3-thiazol-4-yl)methyl 1,4-bis(oxidanyl)naphthalene-2-carboxylate], the IC50 was found to be 25 µM.
